Patent publication US9951064B2, “Azaindazole compounds as inhibitors of T790M containing EGFR mutants” (Genentech, Inc., priority 2013, dated 2018)

Tests used:
EGFR T790M L858R = target: T1, EGFR T790M L858R (Homo sapiens, UniProt P00533, L858R/T790M); experiment: EGFR T790M L858R biochemical assay (Caliper mobility shift); conditions: 5 μM ATP; apparent Ki (Morrison fit) converted by Cheng-Prusoff, Km of ATP 1.3 μM
T1 construct: purchased Life Technologies PV4879
Outline: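 Caliper mobility-shift read-out, electrophoretic separation of substrate from product, after a 30-minute kinase reaction at 22 °C. EDTA at 80 mM terminates each reaction.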

[1] = target: T2, phosphor-EGFR in H1975(L585R/T790M) mutant EGFR expressing cells (Homo sapiens, UniProt P00533, L858R/T790M); experiment: H1975 pEGFR MSD cellular assay; type: cell-based; conditions: NCI-H1975 cells, serum starved, 1 hour compound incubation, pEGFR Tyr1068 MSD; read-out: HI975 pEGFR EC50
T2 construct: host or cells: NCI-H1975
Outline: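 Phospho-EGFR read by MSD electrochemiluminescence: capture with anti-pEGFR antibody (overnight, 4° C), detection with SULFO-TAG anti-total EGFR (1 hour, room temperature). Before lysis, H1975 cells starved of serum overnight got compound for 1 hour at 37° C, 0.5% DMSO final. EC50 via four-parameter logistic regression of percent inhibition.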

EGFR del746-750 T790M = target: T3, EGFR del746-750 T790M (Homo sapiens, UniProt P00533, DEL746-750/T790M); experiment: EGFR del746-750 T790M biochemical assay (Caliper mobility shift); conditions: 5 μM ATP; apparent Ki (Morrison fit) converted by Cheng-Prusoff, Km of ATP 2.1 μM; read-out: EGFR(T790M/d746-750) Ki
T3 construct: purchased Carna Biosciences 08-528
Protocol: The exemplified compounds described herein were tested according to the assay below. The enzyme data reported in Tables 4-5 is generally a representative of multiple experiments.
Reactions proceed for 30 minutes at room temperature (22° C.) and are terminated with 80 mM 2,2′,2″,2″′-(ethane-1,2-diyldinitrilo)tetraacetic acid (EDTA). Product is detected using the Caliper mobility shift detection method where product and substrate are electrophoretically separated and measured.

[2] = tested on: H1975 (EGFR T790M/L858R) cell proliferation; experiment: H1975 proliferation assay (Cell Titer-Glo); type: cell-based; conditions: Homo sapiens, NCI-H1975, 72 h, NCI-H1975 cells, 72 hour incubation, read-out: H1975 antiproliferative EC50
Protocol: H1975 Proliferation Assays
All cell culture reagents were purchased from Invitrogen/Gibco. Cells are cultured at 37° C. at 5% CO2 and split as recommended by ATCC.

T2 sequence (P00533 25-1210 T790M/L858R): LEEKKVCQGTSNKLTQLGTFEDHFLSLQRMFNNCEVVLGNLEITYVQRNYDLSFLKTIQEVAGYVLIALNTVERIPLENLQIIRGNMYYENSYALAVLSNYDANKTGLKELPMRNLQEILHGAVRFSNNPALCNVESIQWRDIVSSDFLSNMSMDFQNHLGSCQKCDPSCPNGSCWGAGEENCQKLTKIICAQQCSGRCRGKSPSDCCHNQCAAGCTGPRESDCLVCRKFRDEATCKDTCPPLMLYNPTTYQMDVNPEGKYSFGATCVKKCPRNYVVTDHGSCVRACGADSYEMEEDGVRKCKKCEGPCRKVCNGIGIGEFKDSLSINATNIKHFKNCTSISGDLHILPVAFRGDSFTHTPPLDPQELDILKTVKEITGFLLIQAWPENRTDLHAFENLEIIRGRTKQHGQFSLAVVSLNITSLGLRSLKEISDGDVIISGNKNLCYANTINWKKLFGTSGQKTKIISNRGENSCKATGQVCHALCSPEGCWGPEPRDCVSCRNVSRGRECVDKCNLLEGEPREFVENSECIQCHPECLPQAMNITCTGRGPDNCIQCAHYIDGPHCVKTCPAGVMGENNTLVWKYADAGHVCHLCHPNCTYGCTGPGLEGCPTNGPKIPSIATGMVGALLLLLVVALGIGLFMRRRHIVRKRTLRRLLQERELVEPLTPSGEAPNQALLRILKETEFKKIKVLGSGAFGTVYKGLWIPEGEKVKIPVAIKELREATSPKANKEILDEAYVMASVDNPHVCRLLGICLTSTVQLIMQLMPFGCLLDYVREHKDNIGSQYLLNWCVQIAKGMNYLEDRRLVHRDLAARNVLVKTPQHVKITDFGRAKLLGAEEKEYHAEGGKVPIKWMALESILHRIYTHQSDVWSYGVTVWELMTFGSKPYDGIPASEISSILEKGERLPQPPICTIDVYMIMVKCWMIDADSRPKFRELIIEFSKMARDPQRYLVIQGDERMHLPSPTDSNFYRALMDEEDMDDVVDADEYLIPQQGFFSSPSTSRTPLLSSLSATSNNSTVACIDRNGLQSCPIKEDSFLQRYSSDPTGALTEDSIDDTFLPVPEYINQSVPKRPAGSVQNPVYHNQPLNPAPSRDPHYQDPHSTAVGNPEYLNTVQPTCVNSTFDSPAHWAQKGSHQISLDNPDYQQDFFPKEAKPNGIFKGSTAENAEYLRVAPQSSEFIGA
T1 sequence (P00533 25-1210 T790M/L858R): as above
T3 sequence (P00533 with tags, fused parts or gaps DEL746-750/T790M limits assumed): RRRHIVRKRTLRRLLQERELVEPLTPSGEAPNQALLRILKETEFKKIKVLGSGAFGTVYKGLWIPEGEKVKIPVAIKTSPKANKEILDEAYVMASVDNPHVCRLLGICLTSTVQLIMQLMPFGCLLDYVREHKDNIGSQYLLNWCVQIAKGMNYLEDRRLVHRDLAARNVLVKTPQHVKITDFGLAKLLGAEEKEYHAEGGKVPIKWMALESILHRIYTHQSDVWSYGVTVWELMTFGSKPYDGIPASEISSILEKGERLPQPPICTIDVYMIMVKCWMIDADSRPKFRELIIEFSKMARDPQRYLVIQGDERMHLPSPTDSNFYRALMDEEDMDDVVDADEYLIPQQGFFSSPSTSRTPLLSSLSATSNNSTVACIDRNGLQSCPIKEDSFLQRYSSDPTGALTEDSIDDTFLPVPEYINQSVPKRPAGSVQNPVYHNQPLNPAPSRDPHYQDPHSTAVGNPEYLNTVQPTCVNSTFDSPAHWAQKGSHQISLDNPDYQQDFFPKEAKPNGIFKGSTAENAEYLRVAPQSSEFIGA

| Compound | Ki (EGFR T790M L858R) | EC50 [1] | Ki (EGFR del746-750 T790M) | EC50 [2] |
| --- | --- | --- | --- | --- |
| CC(C)n1nc(N2CC(C)(C)NC2=O)c2cnc(Nc3ccnc(N4CCC(O)C(F)C4)n3)cc21 (racemic) [Example 88, (±)-1-(6-(2-(cis-3-Fluoro-4-hydroxypiperidin-1-yl)pyrimidin-4-ylamino)-1-isopropyl-1H-pyrazolo[4,3-c]pyridin-3-yl)-4,4-dimethylimidazolidin-2-one] | 1.8 nM | 187 nM | 4.3 nM | 489 nM |
| CCC(C)n1nc(N2CC3(COC3)C2)c2cnc(Nc3ccnc(OCC(C)(C)S(C)(=O)=O)n3)cc21 (racemic) [Example 97, [1-(sec-Butyl)-3-(2-oxa-6-azaspiro[3.3]hept-6-yl)-1H-pyrazolo[4,3-c]pyridin-6-yl]-[2-(2-methanesulfonyl-2-methylpropoxy)pyrimidin-4-yl]amine] | 3.2 nM | 233 nM | 5.2 nM | 1130 nM |
| CCC(C)n1nc(N2CCNC2=O)c2cnc(Nc3ccnc(OCC(C)(C)S(C)(=O)=O)n3)cc21 (racemic) [Example 99, 1-{1-sec-Butyl-6-[2-(2-methanesulfonyl-2-methylpropoxy)pyrimidin-4-ylamino]-1H-pyrazolo[4,3-c]pyridin-3-yl}imidazolidin-2-one] | 3.2 nM | 617 nM | 5.6 nM | 1170 nM |
| CCC(C)n1nc(N2CCNC2=O)c2cnc(Nc3ccnc(NCC(C)(C)S(C)(=O)=O)n3)cc21 (racemic) [Example 101, 1-{1-sec-Butyl-6-[2-(2-methanesulfonyl-2-methylpropylamino)pyrimidin-4-ylamino]-1H-pyrazolo[4,3-c]pyridin-3-yl}imidazolidin-2-one] | 2.3 nM | 568 nM | 2.4 nM | 1830 nM |
| CCC(C)n1nc(N2CCNC2=O)c2cnc(Nc3ccnc(N4CCC(S(C)(=O)=O)CC4)n3)cc21 (racemic) [Example 102, 1-{1-sec-Butyl-6-[2-(4-methanesulfonylpiperidin-1-yl)pyrimidin-4-ylamino]-1H-pyrazolo[4,3-c]pyridin-3-yl}imidazolidin-2-one] | 2.2 nM | 710 nM | 12.4 nM | 1150 nM |
| CO[C@H]1CCN(c2nccc(Nc3cc4c(cn3)c(N3CC5(COC5)C3)nn4C(C)C)n2)C[C@H]1F (racemic) [Example 103, [2-((cis)-(±)-3-Fluoro-4-methoxypiperidin-1-yl)pyrimidin-4-yl]-[1-isopropyl-3-(2-oxa-6-azaspiro[3.3]hept-6-yl)-1H-pyrazolo[4,3-c]pyridin-6-yl]amine] | 1.1 nM | 23.1 nM | 3.9 nM | 248 nM |
| CC(C)n1nc(N2CC(O)(C(F)(F)F)C2)c2cnc(Nc3ccnc(N4CC[C@H](O)[C@H](F)C4)n3)cc21 (racemic) [Example 129, (±)-cis-3-Fluoro-1-(4-(3-(3-hydroxy-3-(trifluoromethyl)azetidin-1-yl)-1-isopropyl-1H-pyrazolo[4,3-c]pyridin-6-ylamino)pyrimidin-2-yl)piperidin-4-ol] | 2.7 nM | 349 nM | 6.3 nM | 2720 nM |
| CC(C)n1nc(N2CC(F)(CO)C2)c2cnc(Nc3ccnc(N4CC[C@H](O)[C@H](F)C4)n3)cc21 (racemic) [Example 130, (±)-cis-3-Fluoro-1-(4-(3-(3-fluoro-3-(hydroxymethyl)azetidin-1-yl)-1-isopropyl-1H-pyrazolo[4,3-c]pyridin-6-ylamino)pyrimidin-2-yl)piperidin-4-ol] | 1.8 nM | 261 nM | 3.3 nM | 1430 nM |
| CC(C)n1nc(N2CCCC2=O)c2cnc(Nc3ccnc(N4CC[C@H](O)[C@H](F)C4)n3)cc21 (racemic) [Example 133, (±)-1-(6-(2-(cis-3-Fluoro-4-hydroxypiperidin-1-yl)pyrimidin-4-ylamino)-1-isopropyl-1H-pyrazolo[4,3-c]pyridin-3-yl)pyrrolidin-2-one] | 1.7 nM | 150 nM | 4.3 nM | 332 nM |
| C[C@@H](n1nc(N2CC[C@@H](O)C2)c2cnc(Nc3ccnc(N4CC[C@](C)(O)[C@H](F)C4)n3)cc21)C(F)(F)F (racemic) [Example 140, (3RS,4SR)-3-Fluoro-1-(4-(3-((R)-3-hydroxypyrrolidin-1-yl)-1-((R*)-1,1,1-trifluoropropan-2-yl)-1H-pyrazolo[4,3-c]pyridin-6-ylamino)pyrimidin-2-yl)-4-methylpiperidin-4-ol] | 3.1 nM | 288 nM | 6.1 nM | 649 nM |
| CCC(C)n1nc(N2CC3(COC3)C2)c2cnc(Nc3ccnc(N4C[C@@H](F)[C@@H](O)C(C)(C)C4)n3)cc21 (mixture of isomers) [Example 147, (4SR,5RS)-1-(4-((1-(sec-Butyl)-3-(2-oxa-6-azaspiro[3.3]heptan-6-yl)-1H-pyrazolo[4,3-c]pyridin-6-yl)amino)pyrimidin-2-yl)-5-fluoro-3,3-dimethylpiperidin-4-ol] | 2.4 nM | 15.8 nM | 3.9 nM | 227 nM |
| CC(C)n1nc(N2CC[C@@H](O)C2)c2cnc(Nc3ccnc(N4C[C@@H](F)[C@@H](O)C(C)(C)C4)n3)cc21 (racemic) [Example 148, cis-5-Fluoro-1-(4-(3-((R)-3-hydroxypyrrolidin-1-yl)-1-isopropyl-1H-pyrazolo[4,3-c]pyridin-6-ylamino)pyrimidin-2-yl)-3,3-dimethylpiperidin-4-ol] | 1.8 nM | 22.3 nM | 2.5 nM | 225 nM |
| CC(C)n1nc(N2CC(O)CC2=O)c2cnc(Nc3ccnc(N4CC[C@H](O)[C@H](F)C4)n3)cc21 (mixture of isomers) [Example 173, (±)-1-(6-(2-(cis-3-Fluoro-4-hydroxypiperidin-1-yl)pyrimidin-4-ylamino)-1-isopropyl-1H-pyrazolo[4,3-c]pyridin-3-yl)-4-hydroxypyrrolidin-2-one] | 2 nM | 1410 nM | 4.8 nM | > 10000 nM |
| CC(C)n1nc(N2CC(F)(F)C2)c2cnc(Nc3ccnc(N4CC[C@H](O)[C@H](F)C4)n3)cc21 (racemic) [Example 174, (±)-cis-1-(4-(3-(3,3-Difluoroazetidin-1-yl)-1-isopropyl-1H-pyrazolo[4,3-c]pyridin-6-ylamino)pyrimidin-2-yl)-3-fluoropiperidin-4-ol] | 1.8 nM | 141 nM | 3.8 nM | 801 nM |
| CC(C)n1nc(N2CC3(CC(O)C3)C2)c2cnc(Nc3ccnc(N4CC[C@H](O)[C@H](F)C4)n3)cc21 (racemic) [Example 175, (±)-2-(6-((2-((cis)-3-Fluoro-4-hydroxypiperidin-1-yl)pyrimidin-4-yl)amino)-1-isopropyl-1H-pyrazolo[4,3-c]pyridin-3-yl)-2-azaspiro[3.3]heptan-6-ol] | 1.4 nM | 97.8 nM | 2.6 nM | 766 nM |
| CC(C)n1nc(NC(C)(C)C#N)c2cnc(Nc3ccnc(N4CC[C@H](O)[C@H](F)C4)n3)cc21 (racemic) [Example 183, (±)-2-(6-(2-(cis-3-Fluoro-4-hydroxypiperidin-1-yl)pyrimidin-4-ylamino)-1-isopropyl-1H-pyrazolo[4,3-c]pyridin-3-ylamino)-2-methylpropanenitrile] | 34.7 nM | 1650 nM | 76.7 nM | 8270 nM |
